The CheMixHub viscosity set
± gives the uncertainty stated by the source.

Experiment: xn = mol fraction of the nth substance listed

CC1=CCC(=C(C)C)CC1 + Brc1ccccc1
viscosity [mPa·s], 101 kPa
Conditions | x1 = 0.0687 | x1 = 0.1424 | x1 = 0.2216 | x1 = 0.307 | x1 = 0.3992 | x1 = 0.4992 | x1 = 0.6079 | x1 = 0.7266 | x1 = 0.8567
303.15 K | 0.993 ± 0.021 | 1 ± 0.022 | 1.011 ± 0.024 | 1.023 ± 0.027 | 1.032 ± 0.03 | 1.036 ± 0.034 | 1.033 ± 0.038 | 1.023 ± 0.043 | 1.01 ± 0.048
308.15 K | 0.942 ± 0.02 | 0.948 ± 0.021 | 0.957 ± 0.023 | 0.967 ± 0.025 | 0.975 ± 0.029 | 0.979 ± 0.032 | 0.973 ± 0.036 | 0.962 ± 0.04 | 0.947 ± 0.045
313.15 K | 0.893 ± 0.019 | 0.897 ± 0.02 | 0.905 ± 0.022 | 0.913 ± 0.024 | 0.919 ± 0.027 | 0.922 ± 0.03 | 0.915 ± 0.034 | 0.903 ± 0.038 | 0.887 ± 0.042

CCc1ccccc1 + C1CCCCC1
303.15 K, 101 kPa
Conditions | viscosity [mPa·s]
x2 = 0.1 | 0.5951 ± 0.0042
x2 = 0.199 | 0.5943 ± 0.0042
x2 = 0.2994 | 0.5972 ± 0.0042
x2 = 0.3986 | 0.6025 ± 0.0042
x2 = 0.5008 | 0.6166 ± 0.0043
x2 = 0.5984 | 0.6366 ± 0.0044
x2 = 0.7004 | 0.6596 ± 0.0045
x2 = 0.798 | 0.7008 ± 0.0046
x2 = 0.9002 | 0.7571 ± 0.0049

COC(C)(C)C + C1CCCCC1
303.15 K, 101 kPa
Conditions | viscosity [mPa·s]
x1 = 0.132 | 0.693 ± 0.005
x1 = 0.2612 | 0.609 ± 0.004
x1 = 0.3989 | 0.536 ± 0.004
x1 = 0.5216 | 0.485 ± 0.004
x1 = 0.5654 | 0.466 ± 0.004
x1 = 0.7149 | 0.42 ± 0.003
x1 = 0.8393 | 0.384 ± 0.003

Clc1ccccc1 + C1CCCCC1
Conditions | viscosity [mPa·s]
293.65 K, 101.33 kPa, x2 = 0.497 | 0.834 ± 0.0097
293.85 K, 101.33 kPa, x2 = 0.7 | 0.8665 ± 0.01
294.25 K, 101.33 kPa, x2 = 0.3 | 0.8152 ± 0.0094
294.55 K, 101.33 kPa, x2 = 0.4 | 0.819 ± 0.0095
294.75 K, 101.33 kPa, x2 = 0.2 | 0.8056 ± 0.0093
294.85 K, 101.33 kPa, x2 = 0.8 | 0.889 ± 0.01
295.15 K, 101.33 kPa, x2 = 0.6 | 0.8189 ± 0.0096
297.15 K, 101.33 kPa, x2 = 0.1 | 0.7894 ± 0.0092
303.05 K, 101.33 kPa, x2 = 0.3 | 0.738 ± 0.0085
303.25 K, 101.33 kPa, x2 = 0.7 | 0.7564 ± 0.0088
303.25 K, 101.33 kPa, x2 = 0.8 | 0.7829 ± 0.0091
303.45 K, 101.33 kPa, x2 = 0.1 | 0.731 ± 0.0084
303.75 K, 101.33 kPa, x2 = 0.2 | 0.7191 ± 0.0083
303.85 K, 101.33 kPa, x2 = 0.4 | 0.7276 ± 0.0084
303.85 K, 101.33 kPa, x2 = 0.6 | 0.7319 ± 0.0088
303.95 K, 101.33 kPa, x2 = 0.497 | 0.7249 ± 0.0084
308.15 K, 101 kPa, x2 = 0.0465 | 0.6656 ± 0.011
308.15 K, 101 kPa, x2 = 0.1818 | 0.6489 ± 0.011
308.15 K, 101 kPa, x2 = 0.2516 | 0.6418 ± 0.011
308.15 K, 101 kPa, x2 = 0.3629 | 0.6379 ± 0.011
308.15 K, 101 kPa, x2 = 0.4845 | 0.6421 ± 0.011
308.15 K, 101 kPa, x2 = 0.5788 | 0.6489 ± 0.011
308.15 K, 101 kPa, x2 = 0.6926 | 0.6668 ± 0.011
308.15 K, 101 kPa, x2 = 0.807 | 0.6991 ± 0.012
308.15 K, 101 kPa, x2 = 0.9588 | 0.7386 ± 0.013
312.65 K, 101.33 kPa, x2 = 0.1 | 0.6777 ± 0.0078
312.75 K, 101.33 kPa, x2 = 0.497 | 0.6502 ± 0.0075
312.75 K, 101.33 kPa, x2 = 0.7 | 0.666 ± 0.0077
312.95 K, 101.33 kPa, x2 = 0.4 | 0.6505 ± 0.0075
312.95 K, 101.33 kPa, x2 = 0.6 | 0.5637 ± 0.0066
313.15 K, 101 kPa, x2 = 0.0465 | 0.6298 ± 0.011
313.15 K, 101 kPa, x2 = 0.1818 | 0.6122 ± 0.011
313.15 K, 101 kPa, x2 = 0.2516 | 0.6045 ± 0.011
313.15 K, 101 kPa, x2 = 0.3629 | 0.5973 ± 0.01
313.15 K, 101 kPa, x2 = 0.4845 | 0.601 ± 0.01
313.15 K, 101 kPa, x2 = 0.5788 | 0.6074 ± 0.011
313.15 K, 101 kPa, x2 = 0.6926 | 0.6254 ± 0.011
313.15 K, 101 kPa, x2 = 0.807 | 0.6532 ± 0.011
313.15 K, 101 kPa, x2 = 0.9588 | 0.689 ± 0.012
313.25 K, 101.33 kPa, x2 = 0.2 | 0.6448 ± 0.0074
313.45 K, 101.33 kPa, x2 = 0.3 | 0.6518 ± 0.0075
313.75 K, 101.33 kPa, x2 = 0.8 | 0.6758 ± 0.0079
322.55 K, 101.33 kPa, x2 = 0.497 | 0.5847 ± 0.0068
322.55 K, 101.33 kPa, x2 = 0.6 | 0.585 ± 0.0066
322.75 K, 101.33 kPa, x2 = 0.3 | 0.591 ± 0.0068
322.75 K, 101.33 kPa, x2 = 0.4 | 0.5803 ± 0.0067
322.85 K, 101.33 kPa, x2 = 0.7 | 0.5926 ± 0.0069
322.85 K, 101.33 kPa, x2 = 0.8 | 0.6059 ± 0.007

C=CC(=O)OCC + C1CCOC1
viscosity [mPa·s], 101 kPa
Conditions | 293.15 K | 298.15 K | 303.15 K | 308.15 K | 313.15 K | 318.15 K
x2 = 0.0825 | 0.5547 ± 0.023 | 0.5211 ± 0.021 | 0.4896 ± 0.02 | 0.4554 ± 0.019 | 0.4158 ± 0.017 | 0.3758 ± 0.015
x2 = 0.167 | 0.5422 ± 0.022 | 0.5102 ± 0.021 | 0.4802 ± 0.02 | 0.4474 ± 0.018 | 0.4096 ± 0.017 | 0.3711 ± 0.015
x2 = 0.2302 | 0.5338 ± 0.022 | 0.503 ± 0.021 | 0.4739 ± 0.019 | 0.4421 ± 0.018 | 0.4055 ± 0.017 | 0.3682 ± 0.015
x2 = 0.316 | 0.5237 ± 0.021 | 0.4945 ± 0.02 | 0.4666 ± 0.019 | 0.436 ± 0.018 | 0.401 ± 0.016 | 0.3651 ± 0.015
x2 = 0.3892 | 0.5163 ± 0.021 | 0.4883 ± 0.02 | 0.4613 ± 0.019 | 0.4317 ± 0.018 | 0.3978 ± 0.016 | 0.3631 ± 0.015
x2 = 0.4603 | 0.5102 ± 0.021 | 0.4832 ± 0.02 | 0.457 ± 0.019 | 0.4283 ± 0.017 | 0.3954 ± 0.016 | 0.3617 ± 0.015
x2 = 0.5286 | 0.5051 ± 0.021 | 0.4791 ± 0.019 | 0.4535 ± 0.018 | 0.4256 ± 0.017 | 0.3938 ± 0.016 | 0.361 ± 0.015
x2 = 0.5947 | 0.5011 ± 0.02 | 0.4759 ± 0.019 | 0.4509 ± 0.018 | 0.4236 ± 0.017 | 0.3926 ± 0.016 | 0.3607 ± 0.015
x2 = 0.6605 | 0.4979 ± 0.02 | 0.4734 ± 0.019 | 0.4489 ± 0.018 | 0.4222 ± 0.017 | 0.392 ± 0.016 | 0.3609 ± 0.015
x2 = 0.7283 | 0.4954 ± 0.02 | 0.4716 ± 0.019 | 0.4475 ± 0.018 | 0.4213 ± 0.017 | 0.3919 ± 0.016 | 0.3615 ± 0.015
x2 = 0.7874 | 0.4938 ± 0.02 | 0.4707 ± 0.019 | 0.4468 ± 0.018 | 0.421 ± 0.017 | 0.3922 ± 0.016 | 0.3624 ± 0.015
x2 = 0.8689 | 0.4927 ± 0.02 | 0.4702 ± 0.019 | 0.4466 ± 0.018 | 0.4212 ± 0.017 | 0.3931 ± 0.016 | 0.3642 ± 0.015
x2 = 0.936 | 0.4926 ± 0.02 | 0.4705 ± 0.019 | 0.4471 ± 0.018 | 0.4219 ± 0.017 | 0.3944 ± 0.016 | 0.3661 ± 0.015

Clc1ccccc1 + C=C(C)C(=O)OC
303.15 K, 101 kPa
Conditions | viscosity [mPa·s]
x2 = 0.099 | 0.6943 ± 0.0067
x2 = 0.1971 | 0.6738 ± 0.0066
x2 = 0.3987 | 0.6345 ± 0.0064
x2 = 0.4982 | 0.6147 ± 0.0063
x2 = 0.6984 | 0.5743 ± 0.0061
x2 = 0.7989 | 0.5538 ± 0.006
x2 = 0.8987 | 0.5349 ± 0.0059

Clc1cccc2ccccc12 + C=Cc1ccccc1
viscosity [mPa·s], 101.33 kPa
Conditions | x2 = 0.1076 | x2 = 0.2005 | x2 = 0.301 | x2 = 0.4032 | x2 = 0.5003 | x2 = 0.6015 | x2 = 0.684 | x2 = 0.7992 | x2 = 0.9033
298.15 K | 2.356 ± 0.054 | 2.07 ± 0.048 | 1.778 ± 0.041 | 1.549 ± 0.036 | 1.379 ± 0.033 | 1.216 ± 0.029 | 1.108 ± 0.027 | 0.9675 ± 0.024 | 0.8331 ± 0.021
303.15 K | 2.103 ± 0.048 | 1.864 ± 0.043 | 1.617 ± 0.038 | 1.412 ± 0.034 | 1.259 ± 0.03 | 1.115 ± 0.027 | 1.013 ± 0.025 | 0.91 ± 0.023 | 0.8013 ± 0.021
308.15 K | 1.884 ± 0.044 | 1.677 ± 0.039 | 1.47 ± 0.035 | 1.283 ± 0.031 | 1.152 ± 0.028 | 1.036 ± 0.025 | 0.9455 ± 0.024 | 0.8446 ± 0.021 | 0.7413 ± 0.019

CCc1ccccc1 + CC1COC(=O)O1
viscosity [mPa·s], 101 kPa
Conditions | 298.15 K | 308.15 K
x2 = 0.0294 | 0.6462 ± 0.026 | 0.5585 ± 0.023
x2 = 0.042 | 0.6512 ± 0.026 | 0.5634 ± 0.023
x2 = 0.0729 | 0.6609 ± 0.026 | 0.5767 ± 0.024
x2 = 0.0821 | 0.6655 ± 0.026 | 0.5811 ± 0.024
x2 = 0.1013 | 0.6735 ± 0.027 | 0.5908 ± 0.024
x2 = 0.2023 | 0.7164 ± 0.028 | 0.6552 ± 0.026
x2 = 0.3008 | 0.8062 ± 0.031 | 0.7411 ± 0.029
x2 = 0.4012 | 0.9344 ± 0.035 | 0.8533 ± 0.033
x2 = 0.5001 | 1.098 ± 0.041 | 0.9894 ± 0.037
x2 = 0.6001 | 1.302 ± 0.047 | 1.154 ± 0.042
x2 = 0.7001 | 1.544 ± 0.055 | 1.345 ± 0.049
x2 = 0.8009 | 1.827 ± 0.064 | 1.567 ± 0.056
x2 = 0.8992 | 2.14 ± 0.074 | 1.811 ± 0.064
